From patent US8877747B2, “Indenone derivative and pharmaceutical composition comprising same” (Korea Research Institute of Chemical Technology, priority 2009, dated 2014)
Counter-ions that a name gives are not always drawn.

These compounds were tested on MC3T3-E1 cells (assay: ALP activity, differentiation of osteoblast cells). Conditions: Mus musculus, MC3T3-E1, 144 h; MC3T3E1 cells treated with 10 μM compound and OF; relates activity to OF-only group (100%); higher = more efficacious.
Assay type: cell-based
Procedure, shortened: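 MC3T3-E1 cells were cultured 6 days at 37 °C in osteogenic medium (ascorbic acid, β-glycerophosphate) with compound at 0.1, 1 and 10 μM; medium and compound were renewed every 2-3 days. Freeze-thaw lysates were protein-normalised and ALP activity was read with 4-nitrophenylphosphate; DMSO and OF-only groups served as comparators.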
Work on `O=C1C(c2cc3ccccc3o2)=C(c2ccccc2)c2ccc(OCCN3CCOCC3)cc21` [Example 91, 6-(2-morpholinoethoxy)-2-(benzofuran-2-yl)-3-phenyl-1H-inden-1-one] yielded an activity at 10 µM of 67%. `O=C1C(c2cnc3ccccc3c2)=C(c2cc(F)cc(F)c2)c2ccc(OCCN3CCS(=O)(=O)CC3)cc21` [Example 92, 3-(3,5-difluorophenyl)-6-[2-(1,1-dioxothiomorpholin-4-yl)ethoxy]-2-(quinolin-3-yl)-1H-inden-1-one hydrochloride salt] was tested, and the activity at 10 µM was 262%. With `COc1ccc(C2=C(c3cc(F)cc(F)c3)c3ccc(OCCN4CCS(=O)(=O)CC4)cc3C2=O)cn1` [Example 93, 3-(3,5-difluorophenyl)-2-(6-methoxypyridin-3-yl)-6-[2-(1,1-dioxothiomorpholin-4-yl)ethoxy]-1H-inden-1-one hydrochloride salt] the activity at 10 µM was 155%. With `Cc1ccc(C2=C(c3cc(F)cc(F)c3)c3ccc(OCCN4CCS(=O)(=O)CC4)cc3C2=O)cc1` [Example 94, 3-(3,5-difluorophenyl)-6-[2-(1,1-dioxothiomorpholin-4-yl)ethoxy]-2-p-tolyl-1H-inden-1-one hydrochloride salt] the activity at 10 µM was 109%. For `COc1ccc(C2=C(c3cc(F)cc(F)c3)c3ccc(OCCN4CCS(=O)(=O)CC4)cc3C2=O)cc1F` [Example 95, 2-(3-fluoro-4-methoxyphenyl)-3-(3,5-difluorophenyl)-6-[2-(1,1-dioxothiomorpholin-4-yl)ethoxy]-1H-inden-1-one hydrochloride salt], the activity at 10 µM was 203%. Compound `CS(=O)(=O)N1CCN(CCOc2ccc3c(c2)C(=O)C(c2cnc4ccccc4c2)=C3c2cc(F)cc(F)c2)CC1` [Example 96, 3-(3,5-difluorophenyl)-6-{2-[4-(methylsulfonyl)piperazin-1-yl]ethoxy}-2-(quinolin-3-yl)-1H-inden-1-one hydrochloride salt] has an activity at 10 µM of 152%. With `COc1ccc(C2=C(c3cc(F)cc(F)c3)c3ccc(OCCN4CCN(S(C)(=O)=O)CC4)cc3C2=O)cn1` [Example 97, 3-(3,5-difluorophenyl)-2-(6-methoxypyridin-3-yl)-6-{2-[4-(methylsulfonyl)piperazin-1-yl]ethoxy}-1H-inden-1-one hydrochloride salt] the activity at 10 µM was 179%. With `Cc1ccc(C2=C(c3cc(F)cc(F)c3)c3ccc(OCCN4CCN(S(C)(=O)=O)CC4)cc3C2=O)cc1` [Example 98, 3-(3,5-difluorophenyl)-6-{2-[4-(methylsulfonyl)piperazin-1-yl]ethoxy}-2-p-tolyl-1H-inden-1-one hydrochloride salt] the activity at 10 µM was 146%. `COc1ccc(C2=C(c3cc(F)cc(F)c3)c3ccc(OCCN4CCN(S(C)(=O)=O)CC4)cc3C2=O)cc1F` [Example 99, 2-(3-fluoro-4-methoxyphenyl)-3-(3,5-difluorophenyl)-6-{2-[4-(methylsulfonyl)piperazin-1-yl]ethoxy}-1H-inden-1-one hydrochloride salt] was tested, and the activity at 10 µM was 212%. For `COc1ccc(C2=C(c3cc(F)cc(F)c3)c3ccc(OCCC4CCN(S(C)(=O)=O)CC4)cc3C2=O)cn1` [Example 100, 3-(3,5-difluorophenyl)-2-(6-methoxypyridin-3-yl)-6-{2-[1-(methylsulfonyl)piperidin-4-yl]ethoxy}-1H-inden-1-one hydrochloride salt], the activity at 10 µM was 185%. `CS(=O)(=O)N1CCC(CCOc2ccc3c(c2)C(=O)C(c2cnc4ccccc4c2)=C3c2cc(F)cc(F)c2)CC1` [Example 101, 3-(3,5-difluorophenyl)-6-{2-[1-(methylsulfonyl)piperidin-4-yl]ethoxy}-2-(quinolin-3-yl)-1H-inden-1-one hydrochloride salt] showed an activity at 10 µM of 216%. `COc1ccc(C2=C(c3cc(F)cc(F)c3)c3ccc(OCCC4CCN(S(C)(=O)=O)CC4)cc3C2=O)cc1F` [Example 102, 3-(3,5-difluorophenyl)-2-(3-fluoro-4-methoxyphenyl)-6-{2-[1-(methylsulfonyl)piperidin-4-yl]ethoxy}-1H-inden-1-one] showed an activity at 10 µM of 220%. In the case of `Cc1ccc(C2=C(c3cc(F)cc(F)c3)c3ccc(OCCC4CCN(S(C)(=O)=O)CC4)cc3C2=O)cc1` [Example 103, 3-(3,5-difluorophenyl)-6-{2-[1-(methylsulfonyl)piperidin-4-yl]ethoxy}-2-p-tolyl-1H-inden-1-one], the activity at 10 µM is reported as 209%. Work on `CS(=O)(=O)N1CCN(CCCOc2ccc3c(c2)C(=O)C(c2cnc4ccccc4c2)=C3c2cc(F)cc(F)c2)CC1` [Example 104, 3-(3,5-difluorophenyl)-6-{3-[4-(methylsulfonyl)piperazin-1-yl]propoxy}-2-(quinolin-3-yl)-1H-inden-1-one hydrochloride salt] yielded an activity at 10 µM of 124%. Work on `Cc1ccc(C2=C(c3cc(F)cc(F)c3)c3ccc(OCCCN4CCN(S(C)(=O)=O)CC4)cc3C2=O)cc1` [Example 105, 3-(3,5-Difluorophenyl)-6-{3-[4-(methylsulfonyl)piperazin-1-yl]propoxy}-2-p-tolyl-1H-inden-1-one hydrochloride salt] yielded an activity at 10 µM of 99%. `COc1ccc(C2=C(c3cc(F)cc(F)c3)c3ccc(OCCCN4CCN(S(C)(=O)=O)CC4)cc3C2=O)cc1F` [Example 106, 2-(3-fluoro-4-methoxyphenyl)-3-(3,5-difluorophenyl)-6-{3-[4-(methylsulfonyl)piperazin-1-yl]propoxy}-1H-inden-1-one hydrochloride salt] showed an activity at 10 µM of 133%. `COc1ccc(C2=C(c3cc(F)cc(F)c3)c3ccc(OCCCN4CCN(S(C)(=O)=O)CC4)cc3C2=O)cn1` [Example 107, 3-(3,5-difluorophenyl)-2-(6-methoxypyridin-3-yl)-6-{3-[4-(methylsulfonyl)piperazin-1-yl]propoxy}-1H-inden-1-one hydrochloride salt] showed an activity at 10 µM of 286%. `Cc1ccc(C2=C(c3ccc(F)cc3F)c3ccc(OCCCN4CCN(S(C)(=O)=O)CC4)cc3C2=O)cc1` [Example 108, 3-(2,4-difluorophenyl)-6-{3-[4-(methylsulfonyl)piperazin-1-yl]propoxy}-2-p-tolyl-1H-inden-1-one] gave an activity at 10 µM of 111%. `COc1ccc(C2=C(c3ccc(F)cc3F)c3ccc(OCCCN4CCN(S(C)(=O)=O)CC4)cc3C2=O)cn1` [Example 109, 3-(2,4-difluorophenyl)-6-{3-[4-(methylsulfonyl)piperazin-1-yl]propoxy}-2-(6-methoxypyridin-3-yl)-1H-inden-1-one] gave an activity at 10 µM of 177%. `COc1ccc(C2=C(c3ccc(F)cc3F)c3ccc(OCCCN4CCN(S(C)(=O)=O)CC4)cc3C2=O)cc1F` [Example 110, 2-(3-fluoro-4-methoxyphenyl)-3-(2,4-difluorophenyl)-6-{3-[4-(methylsulfonyl)piperazin-1-yl]propoxy}-1H-inden-1-one] gave an activity at 10 µM of 207%. With `CS(=O)(=O)N1CCN(CCCOc2ccc3c(c2)C(=O)C(c2cnc4ccccc4c2)=C3c2ccc(F)cc2F)CC1` [Example 111, 3-(2,4-difluorophenyl)-6-{3-[4-(methylsulfonyl)piperazin-1-yl]propoxy}-2-(quinolin-3-yl)-1H-inden-1-one] the activity at 10 µM was 117%. With `Cc1ccc(C2=C(c3ccc(F)cc3F)c3ccc(OCCN4CCS(=O)(=O)CC4)cc3C2=O)cc1` [Example 112, 3-(2,4-difluorophenyl)-6-[2-(1,1-dioxothiomorpholin-4-yl)ethoxy]-2-p-tolyl-1H-inden-1-one] the activity at 10 µM was 70%. `COc1ccc(C2=C(c3ccc(F)cc3F)c3ccc(OCCN4CCS(=O)(=O)CC4)cc3C2=O)cn1` [Example 113, 3-(2,4-difluorophenyl)-2-(6-methoxypyridin-3-yl)-6-[2-(1,1-dioxothiomorpholin-4-yl)ethoxy]-1H-inden-1-one] showed an activity at 10 µM of 217%. With `COc1ccc(C2=C(c3ccc(F)cc3F)c3ccc(OCCN4CCS(=O)(=O)CC4)cc3C2=O)cc1F` [Example 114, 2-(3-fluoro-4-methoxyphenyl)-3-(2,4-difluorophenyl)-6-[2-(1,1-dioxothiomorpholin-4-yl)ethoxy]-1H-inden-1-one] the activity at 10 µM was 286%. In the case of `O=C1C(c2cnc3ccccc3c2)=C(c2ccc(F)cc2F)c2ccc(OCCN3CCS(=O)(=O)CC3)cc21` [Example 115, 3-(2,4-difluorophenyl)-6-[2-(1,1-dioxothiomorpholin-4-yl)ethoxy]-2-(quinolin-3-yl)-1H-inden-1-one], the activity at 10 µM is reported as 199%. With `Cc1ccc(C2=C(c3ccc(F)cc3F)c3ccc(OCCN4CCN(S(C)(=O)=O)CC4)cc3C2=O)cc1` [Example 116, 3-(2,4-difluorophenyl)-6-{2-[4-(methylsulfonyl)piperazin-1-yl]ethoxy}-2-p-tolyl-1H-inden-1-one] the activity at 10 µM was 71%. In the case of `COc1ccc(C2=C(c3ccc(F)cc3F)c3ccc(OCCN4CCN(S(C)(=O)=O)CC4)cc3C2=O)cn1` [Example 117, 3-(2,4-difluorophenyl)-2-(6-methoxypyridin-3-yl)-6-{2-[4-(methylsulfonyl)piperazin-1-yl]ethoxy}-1H-inden-1-one], the activity at 10 µM is reported as 98%. `COc1ccc(C2=C(c3ccc(F)cc3F)c3ccc(OCCN4CCN(S(C)(=O)=O)CC4)cc3C2=O)cc1F` [Example 118, 2-(3-fluoro-4-methoxyphenyl)-3-(2,4-difluorophenyl)-6-{2-[4-(methylsulfonyl)piperazin-1-yl]ethoxy}-1H-inden-1-one] was tested, and the activity at 10 µM was 311%. Work on `CS(=O)(=O)N1CCN(CCOc2ccc3c(c2)C(=O)C(c2cnc4ccccc4c2)=C3c2ccc(F)cc2F)CC1` [Example 119, 3-(2,4-difluorophenyl)-6-{2-[4-(methylsulfonyl)piperazin-1-yl]ethoxy}-2-(quinolin-3-yl)-1H-inden-1-one] yielded an activity at 10 µM of 170%. `Cc1ccc(C2=C(c3ccc(F)cc3F)c3ccc(OCCC4CCN(S(C)(=O)=O)CC4)cc3C2=O)cc1` [Example 120, 3-(2,4-difluorophenyl)-6-{2-[1-(methylsulfonyl)piperidin-4-yl]ethoxy}-2-p-tolyl-1H-inden-1-one] showed an activity at 10 µM of 169%. Work on `COc1ccc(C2=C(c3ccc(F)cc3F)c3ccc(OCCC4CCN(S(C)(=O)=O)CC4)cc3C2=O)cn1` [Example 121, 3-(2,4-difluorophenyl)-2-(6-methoxypyridin-3-yl)-6-{2-[1-(methylsulfonyl)piperidin-4-yl]ethoxy}-1H-inden-1-one] yielded an activity at 10 µM of 207%.
